Test results reported in patent US20160115540A1, “PRODRUGS AND DRUGS” (Biogen MA Inc., priority 2013, published 2016).
Where a name gives a salt, the structure may show the parent alone.

How the values were obtained:
[1] = test system: hippocampus; assay: Transcriptional profiling on Affymetrix GeneChips, single dose, naïve mice: hippocampus; format: in vivo, C57BL/6 mice; conditions: for Number of differentially expressed genes identified: Hippocampus: Naïve, Single Dose, 100 mpk, vs Vehicle
Procedure: (§1) Treated mice were sacrificed at 2, 7, or 12 hours. Tissues (liver, spleen, kidney, jejunum, cortex, hippocampus, striatum and whole blood) were collected and analyzed by transcriptional profiling on mouse Affymetrix GeneChips.
(§2) Tissues (liver, spleen, kidney, jejunum, cortex, hippocampus, striatum and whole blood) were collected and analyzed by transcriptional profiling on mouse Affymetrix GeneChips.
(§3) Animals were exposed to CO2 and whole blood collected via cardiac puncture. Two 100 μl aliquots of whole blood were collected in 1.5 mL microcentrifuge tubes and snap frozen in liquid nitrogen. Peripheral (liver, spleen, kidney and jejunum) and CNS brain (cerebellum, hippocampus, striatum and cortex) tissues were harvested and snap frozen in liquid nitrogen, with special care taken to collect tissues of similar size and from the same location. All samples were stored at −80° C. until RNA extraction was conducted.
(§4) For RNA preparation, frozen tissues were placed in 2 mL RNAse-free 96-well blocks with 1.5 mL QIAzol Lysis Reagent (QIAgen) and a 3.2 mm stainless steel bead (BioSpec Products, Bartlesville, Okla.). Tissues were disrupted for four cycles of 45 seconds in a Mini-Beadbeater (Biospec Products). RNA was extracted in chloroform and the aqueous phase was mixed with an equal volume of 70% ethanol. Extracted RNA was applied to RNeasy 96 plates and purified by the spin method according to the manufacturer's protocol (RNeasy 96 Universal Tissue Protocol, QIAgen, Hilden Germany).
(§5) Automated sample amplifications and biotin labelings were carried out using the NuGEN Ovation RNA Amplification system V2 (Cat #3100), Ovation WB reagent (Cat #1300) and Encore Biotin module (Cat #4200) (NuGEN Technologies, Inc, San Carlos, Calif.) according to manufacturer's recommendations using an Arrayplex automated liquid handler (Beckman Coulter, Indianapolis, Ind.). Two micrograms of biotin labeled sscDNA probe were hybridized to Affymetrix GeneChip Affymetrix HT_MG-430_PM plate arrays with modified conditions as described in Allaire et al. Washing and staining of the hybridized arrays were completed as described in the GeneChip Expression analysis technical manual for HT plate arrays using the Genechip® Array Station (Affymetrix, Santa Clara, Calif.) with modifications as described in Allaire et al. The processed GeneChip® plate arrays were scanned using GeneTitan scanner (Affymetrix, Santa Clara, Calif.).
(§6) Affymetrix scans were subject to quality control (QC) measures. These tests included a visual inspection of the distribution of raw signal intensities and an assessment of RNA degradation, relative log expression (RLE), and normalized unsealed standard error (NUSE). All sample scans that passed these QC metrics were included in the analysis.
(§7) All CEL files were subjected to GC-content-based Robust Multi-array Average (GCRMA) normalization (version 2.20.0) (Irizarry R A, et al. Nucleic Acids Res 2003; 31:e15; Li C, et al. Genome Biol 2001; 2:[…]0032). Expression levels were log (base 2) transformed.
(§8) All calculations and analyses were carried out using R (version 2.11.1) and Bioconductor computational tools (Gentleman R. Springer Science+Business Media 2005).

[2] = test system: striatum; assay: Transcriptional profiling on Affymetrix GeneChips, single dose, naïve mice: striatum; format: in vivo, C57BL/6 mice; conditions: for Number of differentially expressed genes identified: Striatum: Naïve, Single Dose, 100 mpk, vs Vehicle
Procedure: as §1, §2, §3, §4, §5, §6, §7, §8

[3] = hippocampus, 100MMF-vs-Veh, 2 h
[4] = hippocampus, 100MMF-vs-Veh, 7 h
[5] = hippocampus, 2 hr after single 100 mg/kg oral dose
[6] = striatum, 2 hr after single 100 mg/kg oral dose
[7] = striatum, 12 hr after single 100 mg/kg oral dose

COC(=O)/C=C/C(=O)O [MMF, monomethyl fumarate] was tested, and the “Number of genes, DMF Only / MMF Only” value ([1]; Hippocampus) was 6, the “Dnajc18 (1425077_PM_at) differential expression” value ([1]; Hippocampus, 2 hr) was −1.58 and the “Heatr5b (1438085_PM_at) differential expression” value ([1]; Hippocampus, 2 hr) was −1.56. For the same molecule, the “Kcnq3 (1458421_PM_at) differential expression” value ([1]; Hippocampus, 2 hr) was −1.50, the “Kpna4 (1417975_PM_at) differential expression” value ([1]; Hippocampus, 2 hr) was −1.51 and the “Nfat5 (1426029_PM_a_at) differential expression” value ([1]; Hippocampus, 2 hr) was −1.51. For the same molecule, the “Srgap2 (1434407_PM_at) differential expression” value ([1]; Hippocampus, 2 hr) was −1.50, the “Tmtc3 (1458305_PM_at) differential expression” value ([1]; Hippocampus, 7 hr) was −2.40 and the “Number of differentially expressed genes identified: Hippocampus” value (shortened to “Number of differentially … Hippocampus”) ([1]; 2 h after last dosing) was 3. For the same molecule, the “Number of differentially … Hippocampus” value ([1]; 7 h after last dosing) was 2, the “Number of differentially … Hippocampus” value ([1]; 12 h after last dosing) was 1 and the “FC Heatr5b (1438085_PM_at)” value [1, 3] was −1.56. The “FC Kpna4 (1417975_PM_at)” value [1, 3] was −1.51, the “FC Srgap2 (1434407_PM_at)” value [1, 3] was −1.50 and the “FC Tmtc3 (1458305_PM_at)” value [1, 4] was −2.40. The “FC probe 1443353_PM_at” value [1, 4] was −1.74, the “FC LOC100502895 (1435119_PM_at)” value ([1]; hippocampus, 100MMF-vs-Veh, 12 h) was 1.66 and the “Dnajc18 mRNA fold change vs vehicle” value [1, 5] was −1.58. The “Heatr5b mRNA fold change vs vehicle” value [1, 5] was −1.56, the “Kcnq3 mRNA fold change vs vehicle” value [1, 5] was −1.50 and the “Kpna4 mRNA fold change vs vehicle” value [1, 5] was −1.51. For the same molecule, the “Nfat5 mRNA fold change vs vehicle” value [1, 5] was −1.51, the “Srgap2 mRNA fold change vs vehicle” value [1, 5] was −1.50 and the “Tmtc3 mRNA fold change vs vehicle” value ([1]; hippocampus, 7 hr after single 100 mg/kg oral dose) was −2.40. For the same molecule, the “Number of differentially expressed genes identified: Striatum” value (“Number of differentially … Striatum” below) ([2]; 2 h after last dosing) was 6, the “Number of differentially … Striatum” value ([2]; 7 h after last dosing) was 1 and the “Number of differentially … Striatum” value ([2]; 12 h after last dosing) was 7. The “Number of genes, DMF Only / MMF Only” value ([2]; Striatum) was 12, the “Gna13 (1422556_PM_at) differential expression” value ([2]; Striatum, 2 hr) was −1.63 and the “Golga3 (1449616_PM_s_at) differential expression” value ([2]; Striatum, 2 hr) was −1.63. For the same molecule, the “Grin2a (1421616_PM_at) differential expression” value ([2]; Striatum, 2 hr) was −1.78, the “Kdm3b (1428320_PM_at) differential expression” value ([2]; Striatum, 2 hr) was −1.56 and the “Lrrc41 (1427125_PM_s_at) differential expression” value ([2]; Striatum, 2 hr) was −1.54. For the same molecule, the “Top2b (1448458_PM_at) differential expression” value ([2]; Striatum, 2 hr) was −1.56, the “Aox1 (1419435_PM_at) differential expression” value ([2]; Striatum, 7 hr) was 1.95 and the “Adamts9 (1437785_PM_at) differential expression” value ([2]; Striatum, 12 hr) was −2.58. For the same molecule, the “Galnt12 (1437760_PM_at) differential expression” value ([2]; Striatum, 12 hr) was 1.50, the “Hrh3 (1448807_PM_at) differential expression” value ([2]; Striatum, 12 hr) was 1.59 and the “Itpkb (1435272_PM_at) differential expression” value ([2]; Striatum, 12 hr) was −1.56. The “Pvrl3 (1457257_PM_x_at) differential expression” value ([2]; Striatum, 12 hr) was −1.80, the “St18 (1455123_PM_at) differential expression” value ([2]; Striatum, 12 hr) was −1.69 and the “Tmprss6 (1428676_PM_at) differential expression” value ([2]; Striatum, 12 hr) was 1.68. The “FC Golga3 (1449616_PM_s_at)” value ([2]; striatum, 100MMF-vs-Veh, 2 h) was −1.63, the “FC Grin2a (1421616_PM_at)” value ([2]; striatum, 100MMF-vs-Veh, 2 h) was −1.78 and the “FC Kdm3b (1428320_PM_at)” value ([2]; striatum, 100MMF-vs-Veh, 2 h) was −1.56. For the same molecule, the “FC Lrrc41 (1427125_PM_s_at)” value ([2]; striatum, 100MMF-vs-Veh, 2 h) was −1.54, the “FC Top2b (1448458_PM_at)” value ([2]; striatum, 100MMF-vs-Veh, 2 h) was −1.56 and the “FC probe 1442867_PM_at” value ([2]; striatum, 100MMF-vs-Veh, 2 h) was −1.57. The “FC Aox1 (1419435_PM_at)” value ([2]; striatum, 100MMF-vs-Veh, 7 h) was 1.95, the “FC Adamts9 (1437785_PM_at)” value ([2]; striatum, 100MMF-vs-Veh, 12 h) was −2.58 and the “FC Galnt12 (1437760_PM_at)” value ([2]; striatum, 100MMF-vs-Veh, 12 h) was 1.50. The “FC Hrh3 (1448807_PM_at)” value ([2]; striatum, 100MMF-vs-Veh, 12 h) was 1.59, the “FC Itpkb (1435272_PM_at)” value ([2]; striatum, 100MMF-vs-Veh, 12 h) was −1.56 and the “FC Pvrl3 (1457257_PM_x_at)” value ([2]; striatum, 100MMF-vs-Veh, 12 h) was −1.80. For the same molecule, the “FC St18 (1455123_PM_at)” value ([2]; striatum, 100MMF-vs-Veh, 12 h) was −1.69, the “FC Tmprss6 (1428676_PM_at)” value ([2]; striatum, 100MMF-vs-Veh, 12 h) was 1.68 and the “Gna13 mRNA fold change vs vehicle” value [2, 6] was −1.63. For the same molecule, the “Golga3 mRNA fold change vs vehicle” value [2, 6] was −1.63, the “Grin2a mRNA fold change vs vehicle” value [2, 6] was −1.78 and the “Kdm3b mRNA fold change vs vehicle” value [2, 6] was −1.56. For the same molecule, the “Lrrc41 mRNA fold change vs vehicle” value [2, 6] was −1.54, the “Top2b mRNA fold change vs vehicle” value [2, 6] was −1.56 and the “Aox1 mRNA fold change vs vehicle” value ([2]; striatum, 7 hr after single 100 mg/kg oral dose) was 1.95. For the same molecule, the “Adamts9 mRNA fold change vs vehicle” value [2, 7] was −2.58, the “Galnt12 mRNA fold change vs vehicle” value [2, 7] was 1.50 and the “Hrh3 mRNA fold change vs vehicle” value [2, 7] was 1.59. For the same molecule, the “Itpkb mRNA fold change vs vehicle” value [2, 7] was −1.56, the “Pvrl3 mRNA fold change vs vehicle” value [2, 7] was −1.80 and the “St18 mRNA fold change vs vehicle” value [2, 7] was −1.69. The “Tmprss6 mRNA fold change vs vehicle” value [2, 7] was 1.68.
